Test results: paper PMC6630832, “3-Vinylazetidin-2-Ones: Synthesis, Antiproliferative and Tubulin Destabilizing Activity in MCF-7 and MDA-MB-231 Breast Cancer Cells” (Pharmaceuticals, 2019)

What was measured:
[1] = test system: microtubule network of MCF-7 cells; assay: Immunofluorescence microscopy; format: cell-based, human; settings: 100 nM, 16 h
Protocol: Confocal microscopy was used to study the effects of drug treatment on MCF-7 cytoskeleton. For immunofluorescence, MCF-7 cells were seeded at 1 × 10^5 cells/mL on eight chamber glass slides (BD Biosciences, 2350 Qume Dr, San Jose, CA, USA). Cells were either untreated or treated with vehicle [1% ethanol (v/v)], paclitaxel (1 μM), combretastatin A-4 (100 nM) or compound 7s (100 nM) for 16 h. Following treatment cells were gently washed in PBS, fixed for 20 min with 4% paraformaldehyde in PBS and permeabilised in 0.5% Triton X-100. Following washes in PBS containing 0.1% Tween (PBST), cells were blocked in 5% bovine serum albumin diluted in PBST. Cells were then incubated with mouse monoclonal anti-α-tubulin−FITC antibody (clone DM1A) (Sigma-Aldrich, 2033 Westport Center Dr, St. Louis, MO, USA) (1:100) for 2 h at room temperature. Following washes in PBST, cells were incubated with Alexa Fluor 488 dye (1:450) for 1 h at room temperature. Following washes in PBST, the cells were mounted in Ultra Cruz Mounting Media (Santa Cruz Biotechnology Inc., 10410 Finnell Street, Dallas, TX, USA) containing 4,6-diamino-2-phenolindol dihydrochloride (DAPI). Images were captured by Leica SP8 confocal microscopy with Leica application suite X software (Leica Microsystems CMS GmbH Am Friedensplatz 3 D-68165 Mannheim, Germany). All images in each experiment were collected on the same day using identical parameters. Experiments were performed on three independent occasions.

K562 = assay: Antiproliferative activity in K562 leukemia cells; format: cell-based; settings: Homo sapiens
EKVX = assay: NCI60 screen (SRB), Non-Small Cell Lung Cancer; format: cell-based; settings: Homo sapiens
HEK-293T cells = assay: Cytotoxicity in non-tumourigenic HEK-293T cells; format: cell-based, human
HOP-92 = assay: NCI60 screen (SRB), Non-Small Cell Lung Cancer; format: cell-based; settings: Homo sapiens

Row | SMILES | effect on microtubule network [1] | IC50 (K562) | also measured
1 | COc1ccc(/C=C\c2cc(OC)c(OC)c(OC)c2)cc1O [CA-4, Combretastatin A-4, reference compound] | complete loss of microtubule formation | 4 nM | 
2 | C=CC1C(=O)N(c2cc(OC)c(OC)c(OC)c2)C1c1ccc(OC)cc1 (centres unmarked) [Compound 7h, 4-(4-Methoxyphenyl)-1-(3,4,5-trimethoxyphenyl)-3-vinylazetidin-2-one] |  |  | GI50 (EKVX): 58.3 nM
3 | C=CC1C(=O)N(c2cc(OC)c(OC)c(OC)c2)C1c1ccc(OC)c(O)c1 (centres unmarked) [Compound 7s, 4-[3-Hydroxy-4-methoxyphenyl]-1-(3,4,5-trimethoxyphenyl)-3-vinylazetidin-2-one] | complete loss of microtubule formation | 26 nM | cytotoxicity against non-tumorigenic HEK-293T cells (HEK-293T cells): minimal cytotoxicity; IC50 (HEK-293T cells; Homo sapiens, non-tumourigenic HEK-293T cells): > 5000 nM
4 | C=CC1C(=O)N(c2cc(OC)c(OC)c(OC)c2)C1c1ccc(OC)c(N)c1 (centres unmarked) [Compound 7t, 4-(3-Amino-4-methoxyphenyl)-1-(3,4,5-trimethoxyphenyl)-3-vinylazetidin-2-one] |  |  | GI50 (HOP-92): 39.3 nM
